Laboratory results published in ChEMBL document CHEMBL5252600, “Anti-Aβ42 Aggregative Polyketides from the Antarctic Psychrophilic Fungus Pseudogymnoascus sp. OUCMDZ-3578” (J Nat Prod, 2023).
Activity calls are given as the source filed them. No cut-off for these calls is given here.

What was measured:
[1] = biological target: T1, Amyloid-beta precursor protein (Homo sapiens, UniProt P05067); assay: Inhibition of Amyloid beta (1 to 42) (unknown origin) aggregation at 100 uM incubated for 24 hrs by ThioflavinT-dye based fluorescence analysis
T1 sequence (P05067 whole entry): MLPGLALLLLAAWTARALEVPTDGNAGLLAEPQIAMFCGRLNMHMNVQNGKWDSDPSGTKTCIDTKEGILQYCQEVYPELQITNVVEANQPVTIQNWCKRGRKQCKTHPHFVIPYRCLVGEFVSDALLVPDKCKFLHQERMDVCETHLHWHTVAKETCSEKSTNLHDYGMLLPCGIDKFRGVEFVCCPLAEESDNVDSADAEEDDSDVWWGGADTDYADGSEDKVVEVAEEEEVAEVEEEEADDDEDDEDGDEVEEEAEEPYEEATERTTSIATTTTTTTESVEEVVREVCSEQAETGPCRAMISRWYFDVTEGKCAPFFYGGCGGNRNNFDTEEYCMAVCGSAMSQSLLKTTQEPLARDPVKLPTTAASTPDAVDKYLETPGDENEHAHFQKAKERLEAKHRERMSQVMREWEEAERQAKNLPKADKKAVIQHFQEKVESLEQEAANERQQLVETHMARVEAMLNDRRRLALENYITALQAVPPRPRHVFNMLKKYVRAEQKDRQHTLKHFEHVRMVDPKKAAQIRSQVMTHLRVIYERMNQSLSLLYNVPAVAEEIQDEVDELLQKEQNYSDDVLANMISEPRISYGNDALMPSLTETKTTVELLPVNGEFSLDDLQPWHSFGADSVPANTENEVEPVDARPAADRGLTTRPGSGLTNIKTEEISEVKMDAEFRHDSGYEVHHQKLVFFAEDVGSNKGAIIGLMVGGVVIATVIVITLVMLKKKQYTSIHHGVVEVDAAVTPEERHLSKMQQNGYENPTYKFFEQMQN

[2] = biological target: T1, Amyloid-beta precursor protein; assay: Inhibition of Amyloid beta (1 to 42) (unknown origin) aggregation incubated for 24 hrs by ThioflavinT-dye based fluorescence analysis
[3] = Metal chelating activity assessed as compound-Fe3+ complex formation incubated for 1 hr by UV-vis spectrophotometric analysis
[4] = Metal chelating activity assessed as compound-Cu2+ complex formation incubated for 1 hr by UV-vis spectrophotometric analysis
[5] = Metal chelating activity assessed as compound-Zn2+ complex formation incubated for 1 hr by UV-vis spectrophotometric analysis
[6] = biological target: T1, Amyloid-beta precursor protein; assay: Disaggregation of Fe3+ induced Amyloid beta (1 to 42) (unknown origin) aggregation at 100 uM incubated for 24 hrs by ThioflavinT-dye based fluorescence analysis

SMILES	inhibition [1] [%]	IC50 [2] [nM]	Activity [3]	Activity [4]	Activity [5]	Activity [6]
O=C(O[C@@H]1Cc2c(O)cc(O)cc2O[C@@H]1c1cc(O)c(O)c(O)c1)c1cc(O)c(O)c(O)c1 [EPIGALOCATECHIN GALLATE]	–	140	–	–	–	–
COc1cc(O)cc(C(=O)O)c1C(=O)c1c(O)cc(CO)cc1O	73.2	1070	Active	Active	Active	Active
COC(=O)c1cc(O[C@@H]2O[C@H](COC(=O)CCC(=O)O)[C@@H](O)[C@H](O)[C@H]2O)cc(OC)c1C(=O)c1c(O)cc(C)cc1O	64.1	3010	–	–	–	–
COC(=O)c1c(O)cc(C)c(Sc2c(O)cc(OC)c(Oc3c(O)cc(C)cc3O)c2O)c1C(=O)c1c(O)cc(C)cc1O	85.7	100	Active	Active	Active	Active

Further lines, results first:

inhibition [1] [%]	IC50 [2] [nM]	Activity [3]	Activity [4]	Activity [5]	Activity [6]	SMILES
84.5	1030	Active	Active	Active	Active	COC(=O)c1cc(O)cc(OC)c1C(=O)c1c(O)cc(CO[C@H]2O[C@H](CO)[C@@H](O)[C@H](O)[C@H]2O)cc1O
85.2	4730	–	–	–	–	COC(=O)c1cc(O[C@@H]2O[C@H](CO)[C@@H](O)[C@H](O)[C@H]2O)cc(OC)c1C(=O)c1c(O)cc(C)cc1O
85.5	1560	–	–	–	–	COC(=O)c1c(O)cc(C)cc1C(=O)c1cc(O)cc2oc3cc4c(c(O)c3c12)C(=O)c1c(O)cc(C)cc1C4=O
86.3	180	Active	Active	Active	Active	Cc1cc(O)c(C(=O)c2c(O)cc3c(c2O)C(=O)c2c(O)cc(C)cc2C3=O)c(C(=O)c2cc(O)c(O)cc2O)c1
